Columns and labels:
human MAO-B = target: T1, human MAO-B (Homo sapiens, UniProt P27338); test: MAO-B inhibition (MAO-Glo); type: biochemical
T1 construct: purchased Sigma
T1 sequence (P27338 1-520): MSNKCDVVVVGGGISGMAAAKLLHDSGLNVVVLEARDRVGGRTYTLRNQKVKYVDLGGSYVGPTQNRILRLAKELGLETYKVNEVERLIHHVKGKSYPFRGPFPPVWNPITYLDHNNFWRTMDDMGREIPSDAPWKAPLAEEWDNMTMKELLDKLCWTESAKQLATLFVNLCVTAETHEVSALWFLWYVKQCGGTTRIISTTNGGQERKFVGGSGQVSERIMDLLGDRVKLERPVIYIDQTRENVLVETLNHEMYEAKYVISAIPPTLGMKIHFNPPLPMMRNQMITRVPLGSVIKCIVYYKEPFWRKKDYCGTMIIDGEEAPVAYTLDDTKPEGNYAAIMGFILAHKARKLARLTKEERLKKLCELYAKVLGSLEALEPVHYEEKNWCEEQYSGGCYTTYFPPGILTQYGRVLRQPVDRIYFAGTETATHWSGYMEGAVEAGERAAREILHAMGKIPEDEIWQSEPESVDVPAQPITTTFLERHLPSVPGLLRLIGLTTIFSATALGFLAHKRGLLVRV
Protocol: Because MAO-A and -B play important roles in the degradation of neurotransmitters (e.g., serotonin and dopamine) in the central nervous system, selective inhibition for LSD1 is highly desirable.
Recombinant human MAO-A and -B were purchased from Sigma. The inhibitory activity was determined using MAO-Glo assay kit (Promega). In brief, following the manufacturer’s protocol, assays were performed in 384-well white plates (Corning) using MAO-A or -B (100 nM) with a final volume of 20 μL. Reactions were quenched after 60 min by adding reconstituted luciferin detection reagent (20 μL/well); 20 min after addition of the detection reagent, the luminescence of each well was measured using Beckman DTX-880 microplate reader. IC50 calculation was similar to that of LSD1.

MV4-11 leukemia = test: Systemic mouse model of MV4-11 leukemia
From the text: A mouse model of systemic MV4-11 leukemia was established by injecting 10^7 MV4-11 cells/mouse intravenously through the tail veil into NOD-SCID mice with an engraftment rate of 100 %. After 2 weeks, human CD33^+/CD45^+ leukemia cells (0.1–0.5 %) can be detected by FACS in blood samples of the mice. The disease progressed rapidly, causing deaths in ~6 weeks after leukemia transplantation. Thus, upon detection of MV4-11 engraftments, mice were randomly separated into treatment and control groups.
NOD-SCID mice (4 to 6 weeks old) were obtained from Jackson lab (Bar Harbor, ME, USA) and maintained under specific pathogen-free conditions; 10^7 MV4-11 cells/mouse were injected intravenously through the tail veil, and animal weights were monitored twice a week. After 2 weeks when the blood samples showing 0.1–0.5 % CD45+/CD33+ human leukemia cells, mice were randomly segregated into control and treatment groups. […] Animals were sacrificed when >20 % weight loss, hunched posture, ruffled fur, or inactivity was observed. The peripheral blood, spleen, and bone marrow cells were isolated and tested for CD45^+/CD33^+ using FACS. Log-rank analysis was used to determine statistical significance of the survival curves using Prism 5.0.

| IC50 (human MAO-B) [µM] | Compound | less leukemia cells in the blood (MV4-11 leukemia; 2.5 mg/kg/day for 28 days) [%] | less leukemia cells in the spleen (MV4-11 leukemia; 2.5 mg/kg/day for 28 days) [%] | reduction of MV4-11 leukemia cells in the bone marrow (MV4-11 leukemia; 2.5 mg/kg/day for 28 days) [%] | human CD33+/CD45+ leukemia cells in the bone marrow (average) (MV4-11 leukemia; 2.5 mg/kg/day for 28 days, control 33.6 %) [%] | median survival (MV4-11 leukemia; 2.5 mg/kg/day for 28 days, control 34.5 days) [days] | inhibition of leukemia burdens in the bone marrow, spleen, and peripheral blood (MV4-11 leukemia; 5 mg/kg) [%] | inhibition rate in the blood (MV4-11 leukemia; 5 mg/kg/day for 28 days) [%] | inhibition rate in the bone marrow (MV4-11 leukemia; 5 mg/kg/day for 28 days) [%] | inhibition rate in the spleen (MV4-11 leukemia; 5 mg/kg/day for 28 days) [%] | median survival (MV4-11 leukemia; 5 mg/kg/day for 28 days, control 45 days) [days] |
| --- | --- | --- | --- | --- | --- | --- | --- | --- | --- | --- | --- |
| 480 | CN1CCN(C(=O)CNC2CC2c2ccc(-c3ccc(F)nc3)cc2)CC1 (centres unmarked) [Compound 2] | – | – | – | – | – | – | – | – | – | – |
| – | CN1CCN(C(=O)CNC2CC2c2ccc(OCc3ccccc3)cc2)CC1 (centres unmarked) [Compound 1] | 92 | 81 | 80 | 6.7 | 43 | > 89 | 99 | 96 | 89 | 60 |
